Key:
Experiment in all cases: Test E pre-/postemergence herbicide test
barnyardgrass = assay type: in vivo, Echinochloa crus-galli
In short: (§1)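 Postemergence treatment targeted plants at the 1- to 4-leaf stage (2–18 cm), alongside preemergence treatment of planted seed; both used a non-phytotoxic solvent mixture with surfactant. Visual ratings, 0 = no effect to 100 = complete control, were taken 12 to 14 days later.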

large crabgrass = assay type: in vivo, Digitaria sanguinalis
In short: as §1

common ragweed = assay type: in vivo, Ambrosia elatior
In short: as §1

common purslane = assay type: in vivo, Portulaca oleracea; conditions: Preemergence, scale 0 (no effect) to 100 (complete control)
From the text: (§2) Seeds of plant species selected from bipinnate beggarticks (Bidens bipinnata L.), hairy beggarticks (Bidens radiata Thuill.), bermudagrass (Cynodon dactylon (L.) Pers.), Surinam grass (Urochloa decumbens (Staph) R. D. Webster, previously named Brachiaria decumbens Stapf), large crabgrass (Digitaria sanguinalis (L.) Scop.), green foxtail (Setaria viridis (L.) P. Beauv.), goosegrass (Eleusine indica (L.) Gaertn.), johnsongrass (Sorghum halepense (L.) Pers.), kochia (Kochia scoparia (L.) Schrad.), pitted morningglory (Ipomoea lacunosa L.), purple nutsedge (Cyperus rotundus L.), common ragweed (Ambrosia elatior L.), mustard (Brassica nigra (L.) W. D. J. Koch), guineagrass (Panicum maximum Jacq.), dallisgrass (Paspalum dilatatum Poir.), barnyardgrass (Echinochloa crus-galli (L). P. Beauv.), southern sandbur (Cenchrus echinatus L.), common sowthistle (Sonchus oleraceous L.), prickly sida (Sida spinosa L.), Italian ryegrass (Lolium multiflorum Lam.), common purslane (Portulaca oleracea L.), broadleaf signalgrass (Brachiaria platyphylla (Griseb.) Nash), common groundsel (Senecio vulgaris L.), common chickweed (Stellaria media (L.) Vill/Cyr.), tropical spiderwort (Commelina benghalensis L.), annual bluegrass (Poa annua L.), downy bromegrass (Bromus tectorum L.), itchgrass (Rottboellia cochinchinensis (L.) L.f.), quackgrass (Elytrigia repens (L.) Nevski), Canada horseweed (Erigeron Canadensis L.), field bindweed (Convolvulus arvensis L.), spotted spurge (Euphorbia maculata L.), common mallow (Malva sylvestris (=s silvestris) L.), and Russian thistle (Salsola kali L. ssp. Ruthenica (Iljin) Soo) were planted and treated preemergence with test chemicals formulated in a non-phytotoxic solvent mixture which included a surfactant.
(§3) At the same time, plants selected from these weed species were treated with postemergence applications of some of the test chemicals formulated in the same manner. Plants ranged in height from 2 to 18 cm (1- to 4-leaf stage) for postemergence treatments. Treated plants and controls were maintained in a greenhouse for 12 to 14 days, after which time all species were compared to controls and visually evaluated. Plant response ratings, summarized in Table E, are based on a scale of 0 to 100 where 0 is no effect and 100 is complete control. A dash (-) response means no test result.

itchgrass = assay type: in vivo, Rottboellia cochinchinensis
In short: as §1

quackgrass = assay type: in vivo, Elytrigia repens
In short: as §1

common chickweed = assay type: in vivo, Stellaria media
In short: as §1

common sowthistle = assay type: in vivo, Sonchus oleraceous
From the text: as §2, §3

common groundsel = assay type: in vivo, Senecio vulgaris
From the text: as §2, §3

[1] = Postemergence, 250 g ai/ha, scale 0 to 100
[2] = Preemergence, 62 g ai/ha, scale 0 to 100
[3] = Preemergence, 125 g ai/ha, scale 0 (no effect) to 100 (complete control)
[4] = Preemergence, 250 g ai/ha, scale 0 (no effect) to 100 (complete control)
[5] = Preemergence, 500 g ai/ha, scale 0 (no effect) to 100 (complete control)
[6] = postemergence, 125 g ai/ha, scale 0 to 100
[7] = postemergence, 62 g ai/ha, scale 0 to 100

CCNC(=O)c1ccc(F)c(NC(=O)c2cc(C(C)(C)C)nn2CC)c1 [Compound 2, 3-(1,1-dimethylethyl)-1-ethyl-N-[5-[(ethylamino)carbonyl]-2-fluorophenyl]-1H-pyrazole-5-carboxamide]
Plant response rating, Barnyardgrass (barnyardgrass; [1]): 95
Plant response rating, Barnyardgrass (barnyardgrass; [2]): 60
Plant response rating, Barnyardgrass (barnyardgrass; [3]): 80
Plant response rating, Barnyardgrass (barnyardgrass; [4]): 100
Plant response rating, Barnyardgrass (barnyardgrass; [5]): 100
Plant response rating, Barnyardgrass (barnyardgrass; [6]): 90
Plant response rating, Barnyardgrass (barnyardgrass; [7]): 80
Plant response rating, Crabgrass, Large (large crabgrass; [1]): 98
Plant response rating, Crabgrass, Large (large crabgrass; [2]): 70
Plant response rating, Crabgrass, Large (large crabgrass; [3]): 80
Plant response rating, Crabgrass, Large (large crabgrass; [4]): 100
Plant response rating, Crabgrass, Large (large crabgrass; [5]): 100
Plant response rating, Crabgrass, Large (large crabgrass; [6]): 95
Plant response rating, Crabgrass, Large (large crabgrass; [7]): 90
Plant response rating, Ragweed (common ragweed; [2]): 20
Plant response rating, Ragweed (common ragweed; [3]): 60
Plant response rating, Ragweed (common ragweed; [4]): 70
Plant response rating, Ragweed (common ragweed; [5]): 85
Plant response rating, Ragweed (common ragweed; [6]): 80
Plant response rating, Ragweed (common ragweed; [7]): 60
Plant response rating, Purslane (common purslane; 125 g ai/ha): 100
Plant response rating, Purslane (common purslane; 250 g ai/ha): 100
Plant response rating, Purslane (common purslane; 500 g ai/ha): 100
Plant response rating, Itchgrass (itchgrass; [1]): 90
Plant response rating, Itchgrass (itchgrass; [2]): 60
Plant response rating, Itchgrass (itchgrass; [3]): 70
Plant response rating, Itchgrass (itchgrass; [4]): 90
Plant response rating, Itchgrass (itchgrass; [5]): 95
Plant response rating, Itchgrass (itchgrass; [6]): 90
Plant response rating, Itchgrass (itchgrass; [7]): 70
Plant response rating, Quackgrass (quackgrass; [1]): 95
Plant response rating, Quackgrass (quackgrass; [2]): 30
Plant response rating, Quackgrass (quackgrass; [3]): 60
Plant response rating, Quackgrass (quackgrass; [4]): 70
Plant response rating, Quackgrass (quackgrass; [5]): 80
Plant response rating, Quackgrass (quackgrass; [6]): 90
Plant response rating, Quackgrass (quackgrass; [7]): 70
Plant response rating, Chickweed (common chickweed; [2]): 90
Plant response rating, Chickweed (common chickweed; [3]): 90
Plant response rating, Chickweed (common chickweed; [4]): 95
Plant response rating, Chickweed (common chickweed; [5]): 95
Plant response rating, Chickweed (common chickweed; [6]): 100
Plant response rating, Sowthistle (common sowthistle; [1]): 95
Plant response rating, Sowthistle (common sowthistle; [2]): 90
Plant response rating, Sowthistle (common sowthistle; [3]): 95
Plant response rating, Sowthistle (common sowthistle; [4]): 95
Plant response rating, Sowthistle (common sowthistle; [5]): 95
Plant response rating, Sowthistle (common sowthistle; [6]): 90
Plant response rating, Sowthistle (common sowthistle; [7]): 90
Plant response rating, Groundsel (common groundsel; [1]): 80
Plant response rating, Groundsel (common groundsel; [2]): 60
Plant response rating, Groundsel (common groundsel; [3]): 70
Plant response rating, Groundsel (common groundsel; [4]): 100
Plant response rating, Groundsel (common groundsel; [5]): 100

From patent US20060069132A1, “Azolecarboxamide herbicides” (priority 2004, published 2006)
